Laboratory results published in patent US20140243334A1, “SUBSTITUTED HYDOXAMIC ACIDS AND USES THEREOF” (Millennium Pharmaceuticals, Inc., priority 2010, published 2014).

Target: T1, purified human HDAC6 (Homo sapiens, UniProt Q9UBN7)
T1 construct: purchased BPS Bioscience 5006
T1 sequence (Q9UBN7 1-1215): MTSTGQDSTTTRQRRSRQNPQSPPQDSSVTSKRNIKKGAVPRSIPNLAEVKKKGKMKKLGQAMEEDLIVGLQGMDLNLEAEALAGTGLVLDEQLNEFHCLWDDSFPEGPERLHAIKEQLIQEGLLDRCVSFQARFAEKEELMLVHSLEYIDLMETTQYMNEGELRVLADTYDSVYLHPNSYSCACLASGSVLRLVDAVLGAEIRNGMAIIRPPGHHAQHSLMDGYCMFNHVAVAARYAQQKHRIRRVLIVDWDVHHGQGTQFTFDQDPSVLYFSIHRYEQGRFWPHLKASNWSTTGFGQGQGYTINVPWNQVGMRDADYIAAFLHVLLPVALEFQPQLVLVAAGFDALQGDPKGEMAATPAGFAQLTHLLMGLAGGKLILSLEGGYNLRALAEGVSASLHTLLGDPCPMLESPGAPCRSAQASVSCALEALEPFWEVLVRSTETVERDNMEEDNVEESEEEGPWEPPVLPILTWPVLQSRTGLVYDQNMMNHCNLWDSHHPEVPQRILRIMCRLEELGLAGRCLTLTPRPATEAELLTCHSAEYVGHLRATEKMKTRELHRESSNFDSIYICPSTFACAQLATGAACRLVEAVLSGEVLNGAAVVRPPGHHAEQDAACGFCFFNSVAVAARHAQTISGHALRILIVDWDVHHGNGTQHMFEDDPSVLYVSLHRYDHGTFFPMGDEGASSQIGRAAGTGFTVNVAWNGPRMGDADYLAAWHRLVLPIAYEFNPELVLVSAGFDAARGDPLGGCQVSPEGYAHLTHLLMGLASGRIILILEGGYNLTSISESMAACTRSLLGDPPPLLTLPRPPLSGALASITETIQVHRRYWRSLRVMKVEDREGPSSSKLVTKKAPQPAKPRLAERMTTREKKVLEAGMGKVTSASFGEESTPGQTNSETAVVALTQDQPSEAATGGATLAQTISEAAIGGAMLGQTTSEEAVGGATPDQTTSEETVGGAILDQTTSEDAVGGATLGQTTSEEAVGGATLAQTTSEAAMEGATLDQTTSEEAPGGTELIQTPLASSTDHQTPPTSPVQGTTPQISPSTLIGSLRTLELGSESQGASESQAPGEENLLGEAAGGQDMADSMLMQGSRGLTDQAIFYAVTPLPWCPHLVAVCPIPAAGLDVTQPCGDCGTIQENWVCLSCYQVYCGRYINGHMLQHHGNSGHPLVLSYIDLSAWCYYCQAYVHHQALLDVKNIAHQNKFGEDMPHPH
Assay: HDAC6 Enzyme Assay
Type: biochemical
Conditions: HDAC6 inhibition at a compound concentration of 0.412 μM; read-out: Percent Inhibition at 0.412 μM
Protocol: To measure the inhibition of HDAC6 activity, purified human HDAC6 (BPS Bioscience; Cat. No. 5006) is incubated with substrate Ac-Arg-Gly-Lys(Ac)-AMC peptide (Bachem Biosciences; Cat. No. I-1925) for 1 hour at 30° C. in the presence of test compounds or vehicle DMSO control. The reaction is stopped with the HDAC inhibitor trichostatin A (Sigma; Cat. No. T8552) and the amount of Arg-Gly-Lys-AMC generated is quantitated by digestion with trypsin (Sigma; Cat. No. T1426) and subsequent measurement of the amount of AMC released using a fluorescent plate reader (Pherastar; BMG Technologies) set at Ex 340 nm and Em 460 nm. Concentration response curves are generated by calculating the fluorescence increase in test compound-treated samples relative to DMSO-treated controls, and enzyme inhibition (IC50) values are determined from those curves.

| SMILES | inhibition at 0.412 µM [%] |
| --- | --- |
| Cc1ccc(-c2ccc3c(c2)CC(C(=O)NO)CC3)c2ccccc12 (centres unmarked) [Compound I-98, N-hydroxy-4-methyl-5′,6′,7′,8′-tetrahydro-1,2′-binaphthalene-7′-carboxamide] | 78 |
| COc1ccc2c(c1)CCC(C(=O)NO)C2 (centres unmarked) [Compound I-10, N-hydroxy-6-methoxy-1,2,3,4-tetrahydronaphthalene-2-carboxamide] | 32 |
| CC(C)(C)C(=O)Nc1cccc(-c2ccc3c(c2)CC(C(=O)NO)CC3)c1 (centres unmarked) [Compound I-63, 7-{3-[(2,2-dimethylpropanoyl)amino]phenyl}-N-hydroxy-1,2,3,4-tetrahydronaphthalene-2-carboxamide] | 90 |
| O=C(NO)C1CCc2ccc(-c3csc4ccccc34)cc2C1 (centres unmarked) [Compound I-96, 7-(1-benzothien-3-yl)-N-hydroxy-1,2,3,4-tetrahydronaphthalene-2-carboxamide] | 79 |
| CN(C)C(=O)c1cc(-c2ccc3c(c2)CC(C(=O)NO)CC3)ccc1Cl (centres unmarked) [Compound I-115, 7-{4-chloro-3-[(dimethylamino)carbonyl]phenyl}-N-hydroxy-1,2,3,4-tetrahydronaphthalene-2-carboxamide] | 83 |
| COc1ccc2c(c1)CC(C)(C(=O)NO)CC2 (centres unmarked) [Compound I-76, N-hydroxy-7-methoxy-2-methyl-1,2,3,4-tetrahydronaphthalene-2-carboxamide] | 0 |
| O=C1CCc2c(Oc3cc4c(cc3F)CCC(C(=O)NO)C4)ccnc2N1 (centres unmarked) [Compound I-31, 6-fluoro-N-hydroxy-7-[(7-oxo-5,6,7,8-tetrahydro-1,8-naphthyridin-4-yl)oxy]-1,2,3,4-tetrahydronaphthalene-2-carboxamide] | 79 |
| O=C(NO)C1CCc2ccc(-c3ccc4ccccc4c3)cc2C1 (centres unmarked) [Compound I-86, N-hydroxy-5,6,7,8-tetrahydro-2,2′-binaphthalene-7-carboxamide] | 73 |
| Cc1cc(F)ccc1-c1ccc2c(c1)CC(C(=O)NO)CC2 (centres unmarked) [Compound I-102, 7-(4-fluoro-2-methylphenyl)-N-hydroxy-1,2,3,4-tetrahydronaphthalene-2-carboxamide] | 76 |
| O=C(NO)C1CCc2ccc(C#Cc3ccccc3)cc2C1 (centres unmarked) [Compound I-34, N-hydroxy-7-(phenylethynyl)-1,2,3,4-tetrahydronaphthalene-2-carboxamide] | 57 |
| O=C(NO)C1CCc2ccc(Oc3ccccc3)cc2C1 (centres unmarked) [Compound I-8, N-hydroxy-7-phenoxy-1,2,3,4-tetrahydronaphthalene-2-carboxamide] | 73 |
| COc1cccc(Nc2ccc3c(c2)CCC(C(=O)NO)C3)c1 (centres unmarked) [Compound I-79, N-hydroxy-6-[(3-methoxyphenyl)amino]-1,2,3,4-tetrahydronaphthalene-2-carboxamide] | 43 |
| CC1(C(=O)Nc2ccc3c(c2)CC(C(=O)NO)CC3)CCNCC1 (centres unmarked) [Compound I-18, N-{7-[(hydroxyamino)carbonyl]-5,6,7,8-tetrahydronaphthalen-2-yl}-4-methylpiperidine-4-carboxamide] | 54 |
| O=C(NO)C1CCc2ccc(-c3ccc(S(=O)(=O)N4CCOCC4)cc3)cc2C1 (centres unmarked) [Compound I-117, N-hydroxy-7-[4-(morpholin-4-ylsulfonyl)phenyl]-1,2,3,4-tetrahydronaphthalene-2-carboxamide] | 74 |
| COc1ccc(Nc2ccc3c(c2)CCC(C(=O)NO)C3)cc1 (centres unmarked) [Compound I-80, N-hydroxy-6-[(4-methoxyphenyl)amino]-1,2,3,4-tetrahydronaphthalene-2-carboxamide] | 43 |

The next lines start with the values.

| inhibition at 0.412 µM [%] | SMILES |
| --- | --- |
| 83 | O=C(NO)C1CCc2ccc(-c3c[nH]c4ccccc34)cc2C1 (centres unmarked) [Compound I-82, N-hydroxy-7-(1H-indol-3-yl)-1,2,3,4-tetrahydronaphthalene-2-carboxamide] |
| 61 | O=C(NO)C1CCc2ccc(-c3ccc(S(=O)(=O)N4CCCCC4)cc3)cc2C1 (centres unmarked) [Compound I-123, N-hydroxy-7-[4-(piperidin-1-ylsulfonyl)phenyl]-1,2,3,4-tetrahydronaphthalene-2-carboxamide] |
| 80 | CC(=O)Nc1cccc(Oc2ccc3c(c2)CC(C(=O)NO)CC3)c1 (centres unmarked) [Compound I-21, 7-[3-(acetylamino)phenoxy]-N-hydroxy-1,2,3,4-tetrahydronaphthalene-2-carboxamide] |
| 37 | O=C(NO)C1CCc2ccc(CCc3ccccc3)cc2C1 (centres unmarked) [Compound I-36, N-hydroxy-7-(2-phenylethyl)-1,2,3,4-tetrahydronaphthalene-2-carboxamide] |
| 73 | O=C(NO)C1CCc2ccc(-c3cccc(OCc4ccccc4)c3)cc2C1 (centres unmarked) [Compound I-48, 7-[3-(benzyloxy)phenyl]-N-hydroxy-1,2,3,4-tetrahydronaphthalene-2-carboxamide] |
| 54 | O=C(NO)C1CCc2ccc(-c3ccc(OCc4ccccc4)cc3)cc2C1 (centres unmarked) [Compound I-121, 7-[4-(benzyloxy)phenyl]-N-hydroxy-1,2,3,4-tetrahydronaphthalene-2-carboxamide] |
| 79 | CC(C)(C)NC(=O)c1ccc2c(c1)CC(C(=O)NO)CC2 (centres unmarked) [Compound I-45, N^7-(tert-butyl)-N^2-hydroxy-1,2,3,4-tetrahydronaphthalene-2,7-dicarboxamide] |
| 16 | CC1(C(=O)NO)CCc2ccc(Oc3ccc(Cl)cc3)cc2C1 (centres unmarked) [Compound I-124, 7-(4-Chlorophenoxy)-N-hydroxy-2-methyl-1,2,3,4-tetrahydronaphthalene-2-carboxamide] |
| 13 | O=C(NO)C1CCc2cccc(Oc3ccnc(NC(=O)C4CC4)c3)c2C1 (centres unmarked) [Compound I-16, 8-({2-[(cyclopropylcarbonyl)amino]pyridin-4-yl}oxy)-N-hydroxy-1,2,3,4-tetrahydronaphthalene-2-carboxamide] |
| 83 | CC(C)(C)OC(=O)Nc1cccc(Oc2ccc3c(c2)CC(C(=O)NO)CC3)c1 (centres unmarked) [Compound I-53, tert-Butyl [3-({7-[(hydroxyamino)carbonyl]-5,6,7,8-tetrahydronaphthalen-2-yl}oxy)phenyl]carbamate] |
| 78 | COc1ccc(-c2ccc3c(c2)CC(C(=O)NO)CC3)c(C)c1 (centres unmarked) [Compound I-95, N-hydroxy-7-(4-methoxy-2-methylphenyl)-1,2,3,4-tetrahydronaphthalene-2-carboxamide] |
| 38 | COc1ccccc1Nc1ccc2c(c1)CCC(C(=O)NO)C2 (centres unmarked) [Compound I-84, N-hydroxy-6-[(2-methoxyphenyl)amino]-1,2,3,4-tetrahydronaphthalene-2-carboxamide] |
| 71 | O=C(NO)C1CCc2ccc(Nc3cccc(Cl)c3)cc2C1 (centres unmarked) [Compound I-26, 7-[(3-chlorophenyl)amino]-N-hydroxy-1,2,3,4-tetrahydronaphthalene-2-carboxamide] |
| 76 | O=C(NO)C1CCc2ccc(Oc3cccc(NCc4ccccc4)c3)cc2C1 (centres unmarked) [Compound I-59, 7-[3-(benzylamino)phenoxy]-N-hydroxy-1,2,3,4-tetrahydronaphthalene-2-carboxamide] |
| 64 | O=C(NO)C1CCc2ccc(Oc3cccc(OCc4ccccc4)c3)cc2C1 (centres unmarked) [Compound I-41, 7-[3-(benzyloxy)phenoxy]-N-hydroxy-1,2,3,4-tetrahydronaphthalene-2-carboxamide] |
| 77 | O=C(NO)C1CCc2ccc(-c3ccc(C(=O)N4CCCC4)c(F)c3)cc2C1 (centres unmarked) [Compound I-118, 7-[3-fluoro-4-(pyrrolidin-1-ylcarbonyl)phenyl]-N-hydroxy-1,2,3,4-tetrahydronaphthalene-2-carboxamide] |
| 8 | COc1ccc2c(c1)CC(C(=O)NO)CC2 (centres unmarked) [Compound I-1, N-hydroxy-7-methoxy-1,2,3,4-tetrahydronaphthalene-2-carboxamide] |
